Assay: IV pharmacokinetics in rats
Conditions: Wistar, rat, in vivo, 5 mg/kg
Text: Each of the dose treatment groups was split into 2 cohort groups of 4 mice. The reason for cohort blood sampling is due to the blood volume limitations of the mouse species. Blood was drawn from each cohort every other pharmacokinetic sampling time. […] Three mice per dose group were euthanized at each of the collection time points. […] Blood from each rat was collected for each time point.

CNCc1ccc(-c2[nH]c3cc(F)cc4c3c2CCNC4=O)cc1 [compound of formula 1, 8-fluoro-2-{4-[(methylamino)methyl]phenyl}-1,3,4,5-tetrahydro-6H-azepino[5,4,3-cd]indol-6-one]
AUC(0-inf): 990 ng·h/mL
Vd: 10 L/kg
clearance: 85 mL/min/kg
half-life: 2.8 h
